{"source": "patent US9511074B2", "about": "“Methods of treating disorders associated with protein polymerization” (UNIVERSITY OF PITTSBURGH—OF THE COMMONWEALTH SYSTEM OF …, priority 2009, dated 2016)", "key": {"[1]": {"test_system": "ATZ in the HTO/Z cell line", "assay": "Steady state levels of ATZ in the HTO/Z cell line (immunoblot of insoluble and soluble fractions)", "assay_type": "cell-based, human", "conditions": "HTO/Z cells", "excerpt": "(§1) Cell Lines The human epidermal HeLa cell line with doxycycline-regulated expression of ATZ (HTO/Z) has been described previously (1). HTO/M and HTO/Saar are HeLa cell lines with doxycycline-regulated expression of wild type AT and the AT Saar variant, respectively (1). A murine embryonic fibroblast cell line (MEF) with targeted disruption of Atg5 (2) was engineered for stable expression of ATZ using the previously described pRc/RSV-ATZ expression plasmid (3). A wild type MEF cell line was also engineered for stable expression of ATZ in the same way to serve as control. For experiments with CBZ, the inducible cell lines were cultured in the absence of doxycycline for at least 4 weeks for maximal expression of AT. The cells were then subcultured into separate monolayers in fresh complete growth medium and incubated for 48 hours in the absence or presence of CBZ or rapamycin (RAP). CBZ or RAP were added to the growth medium. The duration of incubation with CBZ was determined to be optimal at 48 hours based on experiments in which the duration was varied from 12 to 72 hours. Doses of CBZ were based on previous studies of its effects in cell lines (5,6). Doses of RAP were based on previous positive effects on autophagic disposal of polyglutamine-repeat proteins (7). After the incubation cells were homogenized and cell homogenates separated into insoluble and soluble fractions according to our previously established technique (8). Samples of 20 μgs each were subjected to immunoblot analysis for AT, BiP and GAPDH.\nFor immunoblot analysis to detect AT, GAPDH or LC3, cells were lysed in 50 mM Tris-HCl, 150 mM NaCl, 1% NP-40, pH 8.0. Protein levels were quantified using the BCA protein assay (Pierce Biotechnology, Rockford, Ill.). 10-50 μg samples were loaded onto 7.5% precast gels. PVDF membranes were blocked in TBS, 0.5% Tween 20 (TBST), 5% milk and then incubated with primary antibody in 5% milk TBST solution. Horseradish peroxidase anti-goat Ig or anti-mouse Ig (Jackson Labs, Bar Harbor, Me.) were used as secondary antibodies in TBST. Blots were visualized with Super Signal West Dura or West Femto from Pierce."}, "[2]": {"test_system": "ATZ in wild-type mouse embryonic fibroblast (MEF) cell line", "assay": "ATZ levels in wild-type (Atg5+/+) MEF cell line", "assay_type": "cell-based, murine", "excerpt": "as §1, with “Doses of RAP were based on previous positive effects on autophagic disposal of polyglutamine-repeat proteins (7). After the incubation cells were homogenized and cell homogenates separated into insoluble and soluble fractions according to our previously established technique (8). Samples of 20 μgs each were subjected to immunoblot analysis for AT, BiP and GAPDH.” left out\nFor immunoblot analysis to detect AT, GAPDH or LC3, cells were lysed in 50 mM Tris-HCl, 150 mM NaCl, 1% NP-40, pH 8.0. Protein levels were quantified using the BCA protein assay (Pierce Biotechnology, Rockford, Ill.). […]"}, "human AT": {"test_system": "human AT", "assay": "Serum levels of human ATZ in PiZ mice by ELISA", "assay_type": "in vivo, mouse", "conditions": "CBZ 250 mg/kg/day for 2 weeks", "protocol": "For ELISA on mouse serum specimens, Nunc Maxisorp plates were first coated with goat anti-human AT (Bethyl), then blocked in PBS-Tween20 containing 5% nonfat milk. Serum samples were loaded into the wells in 1:20,000 dilution using purified human AT serial dilutions (1.56 to 100 ng/ml) as a standard. Rabbit-anti human AT (Dako) was used as […], and goat anti-rabbit IgG-HRP (Dako) a secondary antibody. Protein levels were detected with OPD (Sigma)."}, "PiZ×IKKbDhep mouse": {"test_system": "PiZ×IKKbDhep mouse", "assay": "Hepatic hydroxyproline in PiZ×IKKbDhep mouse model", "assay_type": "in vivo", "conditions": "FIG. 7", "excerpt": "Transgenic Mice PiZ mice that have been bred into the C57/BL6 background have been described previously (1). For the second and third series of experiments with CBZ we used PiZ mice that were re-derived onto the FVB/N background for a move into a new animal facility. The transgene that was used to generate the PiZ mouse is a genomic fragment of DNA that contains the coding regions of the ATZ gene together with introns and ˜2 kilobases of upstream and downstream flanking regions (10). […] In this perspective it is not an exact phenocopy of the classical form of AT deficiency. In particular it cannot be a model for the loss-of-function mechanisms associated with the classical form of AT deficiency. […]\nHistology Sections of liver tissue were stained with hematoxylin and eosin, PAS, PAS after diastase treatment, TUNEL, PCNA, Ki67 and Sirius Red using standard techniques (18). […] The number of inflammatory nodules, AT-containing globules and autophagosomes were each quantified blindly by counting cells in 6 microscopic fields of 10 different sections for each liver. The number of nuclei, as determined by Hoechst staining, was used to exclude the possibility that different numbers of cells were counted in liver sections from mice treated with CBZ as compared to controls. Hepatic hydroxyproline concentration was determined by a well-established protocol (20,21)."}, "APP-PS1 mouse": {"test_system": "APP-PS1 mouse", "assay": "Plaque load and Aβ ELISA in APP-PS1 mouse model of AD", "assay_type": "in vivo", "conditions": "APP-PS1 mice, 200 mg/kg/day gavage, 5 doses per wk, 3 wks", "excerpt": "The APP-PS1 mouse model of AD is associated with accelerated amyloid deposition with plaques resembling AD in humans starting to appear at 12 weeks of age (12) and progressive behavioral changes starting at 6 months of age (55, 56). Only a limited number of mice were available at the ideal age, 9 wks, at the time of the study, so the pilot study was very small. 9-12 wks of age was selected as the ideal age because it represents the age with the earliest consistent appearance of AP deposition in APP-PS1 mice. Mice were treated by orogastric gavage with CBZ 200 mg/kg/day, 5 doses per wk, for 3 wks; n=2 for CBZ and n=4 for vehicle (DMSO). Brain sections were stained with X-34, antibodies to Aβ1-40 and Aβ1-42 to determine plaque load using techniques as described previously (57)."}, "[3]": {"conditions": "48 hours incubation, immunoblot"}}, "data": [{"smiles": "NC(=O)N1c2ccccc2C=Cc2ccccc21", "note": "[CBZ, 5H-dibenz [b,f]azepine-5-carboxamide]", "values": [{"measurement": "minimal effective dose on ATZ levels", "setting": "[1]", "result": 3, "unit": "µM"}, {"measurement": "steady-state levels of ATZ, insoluble fraction", "setting": "[1]; [3]", "result": "marked decrease"}, {"measurement": "steady-state levels of ATZ, soluble fraction", "setting": "[1]; [3]", "result": "marked decrease"}, {"measurement": "levels of insoluble ATZ", "setting": "[2]; wild-type MEF cell line", "result": "decrease"}, {"measurement": "levels of soluble ATZ", "setting": "[2]; wild-type MEF cells", "result": "decrease"}, {"measurement": "serum concentrations of human AT", "setting": "human AT", "result": "not significantly affected"}, {"measurement": "hepatic hydroxyproline concentration", "setting": "PiZ×IKKbDhep mouse", "result": "decrease"}, {"measurement": "soluble and insoluble Aβ1-40 and Aβ1-42 by ELISA", "setting": "APP-PS1 mouse", "result": "trend toward lower values"}, {"measurement": "plaque load (X-34, anti-Aβ1-40, anti-Aβ1-42 staining)", "setting": "APP-PS1 mouse; n=2", "result": "marked reduction"}]}]}
